Patent publication US8877483B2, “Dioxin elimination promoter” (priority 2002, dated 2014)

Tested on: liver cytochrome P450
Assay: EPR spectra of rat liver after oral administration of PCB126 (construction of model animals)
Format: in vivo
Settings: rats, single forced oral dose 0, 0.3, 3, 30 or 100 μg/kg bw in corn oil, liver isolated 24 hour after administration; FIG. 1
Protocol: When the EPR measurement is carried out with rat liver as an experimental animal, the resonance absorption of an iron atom contained in cytochrome P450 protein is observed at a position of g=2.40. When dioxin were administered to a rat, an abnormal resonance absorption which is not observed in untreated case appears as a signal at a position of g=2.49, in addition to the normal resonance absorptions. Since the intensity of the abnormal signal becomes higher according to increase of an amount of dioxins administered, it can be a living body index showing a degree of pollution.
As laboratory animals, rats to which PCB 126 (3,3′,4,4′,5-pentachlorobiphenyl) had been administered were prepared. The rats were 6-week-old Sprangue-Dawley (purchased from Nippon Charles River). After acclimation rearing for about one week, they forcedly administered with solutions containing an adequate concentration of PCB 126 (manufactured by Wellington Laboratories; purity: 99.99% or more) dissolved in commercially available corn oil (manufactured by Hayashi Chemicals) so that the amount of cPCB was 0 (control), 0.3, 3, 30 or 100 μg/kg body weight (bw) in the same amount of corn oil through a probe. PCB-administered rats were euthanized with ether 24 hour after the administration. […] Then, tissue fragments were analyzed by an EPR measurement method. […]

Clc1ccc(-c2cc(Cl)c(Cl)c(Cl)c2)cc1Cl [cPCB, 3,3′,4,4′,5-pentachlorobiphenyl]
abnormal EPR signal at g=2.49 in liver tissue fragments: intensity varies depending on the administered amount
